Molecules are shown by their SMILES. Read-outs that look alike come from different tables or passages of the source.

This note sets out measurements from patent US7375081B2, “Therapeutic combination of a pneumocandin derivative and an antifungal agent” (Astellas Pharma Inc., priority 1999, dated 2008).

The test system of this assay is clinical isolates of Aspergillus fumigatus. The experiment in a line: Broth microdilution checkerboard MIC, RPMI medium (pH 7.0), drugs alone and combined. Type of assay: cell-based. Particulars: for MIC: Aspergillus fumigatus. As to the method:
The broth microdillution method using RPMI medium (pH 7.0) was used, comparing the each drug alone (Test Compound, AMPH-B, ITCZ, Nikkomycin X and 5-FC) and combined for each clinical isolates of Aspergillus fumigatus. A combination of drug concentrations was evaluated by the checkerboard method.
All tubes were examined macroscopically for growth and compared to a control (no drug). MIC was visually determined as the lowest concentration resulting in prominent decrease in turbidity compared to controls.
The Fractional Inhibitory Concentration (FIC) for each drug in mixture wells was compared to the MIC for each drug alone. The FIC index was calculated from the sum of the FICs for the two drugs. A quantitative expression of the interaction for inhibition is as follows: Synergy≦0.5; Test Result In vitro combination with Test Compound and AMPH-B against A. fumigatus
(In broth dilution the organism is exposed to a series of concentrations in liquid medium.)

The term MIC denotes the lowest concentration found to suppress growth. Turning to `CCCCCOc1ccc(-c2cc(-c3ccc(C(=O)NC4CC(O)C(O)NC(=O)C5C(O)C(C)CN5C(=O)C(C(O)CC(N)=O)NC(=O)C(C(O)C(O)c5ccc(O)c(OS(=O)(=O)[O-])c5)NC(=O)C5CC(O)CN5C(=O)C(C(C)O)NC4=O)cc3)no2)cc1.[Na+]` (stereo not shown) [Test Compound], the “MIC Test Compound Combination” value reads like this: (A. fumigatus 8004, in combination with AMPH-B) 0.0078 µg/mL; (A. fumigatus 8008, in combination with ITCZ) 0.0078 µg/mL; (A. fumigatus FP1923, in combination with Nikkomycin X) “≦0.001 μg/ml”; (A. fumigatus FP1990, in combination with 5-FC) 0.002 µg/mL. The MIC is 0.0313 µg/mL (read-out: MIC Test Compound Alone, A. fumigatus 8004, drug alone); 0.0313 µg/mL (read-out: MIC Test Compound Alone, A. fumigatus 8008, drug alone); 0.0039 µg/mL (read-out: MIC Test Compound Alone, A. fumigatus FP1923, drug alone); 0.0078 µg/mL (read-out: MIC Test Compound Alone, A. fumigatus FP1990, drug alone).

Take `CCC(C)n1ncn(-c2ccc(N3CCN(c4ccc(OCC5COC(Cn6cncn6)(c6ccc(Cl)cc6Cl)O5)cc4)CC3)cc2)c1=O` (stereo not shown) [ITCZ, itraconazole]: the “MIC ITCZ Combination” value (A. fumigatus 8008, in combination with Test Compound) was 0.125 µg/mL. Moreover, the MIC (A. fumigatus 8008, drug alone, read-out: MIC ITCZ Alone) worked out at 0.5 µg/mL.

Consider `Nc1[nH]c(=O)ncc1F` [5-FC, flucytosine], for which the “MIC 5-FC Combination” value (A. fumigatus FP1990, in combination with Test Compound) turned out to be 8 µg/mL. In addition, under “A. fumigatus FP1990, drug alone, read-out: MIC 5-FC Alone”, the MIC was greater than 32 µg/mL.

Take `C[C@@H]([C@H](N)C(=O)N[C@H](C(=O)O)[C@H]1OC(n2cc(C=O)nc2O)[C@H](O)[C@@H]1O)[C@H](O)c1ccc(O)cn1` (stereo partly shown) [Nikkomycin X, nikkomycin X]: the “MIC Nikkomycin X Alone” value (A. fumigatus FP1923, drug alone) came out at 128 µg/mL. Besides, the “MIC Nikkomycin X Combination” value (A. fumigatus FP1923, in combination with Test Compound) was 4 µg/mL.

In the case of `C[C@@H]1[C@H](O)[C@@H](C)/C=C/C=C/C=C/C=C/C=C/C=C/C=C/[C@H](O[C@@H]2O[C@H](C)[C@@H](O)[C@H](N)[C@@H]2O)C[C@@H]2O[C@](O)(C[C@@H](O)C[C@@H](O)[C@H](O)CC[C@@H](O)C[C@@H](O)CC(=O)O[C@H]1C)C[C@H](O)[C@H]2C(=O)O` [AMPH-B, amphotericin B], the “MIC AMPH-B Alone” value (A. fumigatus 8004, drug alone) came to 2 µg/mL. The “MIC AMPH-B Combination” value (A. fumigatus 8004, in combination with Test Compound) turned out to be 0.5 µg/mL.
